Key:
Type in all cases: cell-based
[1] = test system: carbapenem-resistant Acinetobacter baumannii (KUMC.2014.91); experiment: Rezazurin assay, MIC and MBC, carbapenem-resistant strain KUMC.2014.91
[2] = test system: Acinetobacter baumannii, which is a normal strain; experiment: Rezazurin assay, MIC and MBC, normal strain (control)
[3] = test system: carbapenem-resistant Acinetobacter baumannii (KUMC.2014.90); experiment: Rezazurin assay, MIC and MBC, carbapenem-resistant strain KUMC.2014.90

MIC 50% ([1]; Acinetobacter baumannii (KUMC.2014.91), 50% inhibitory concentration, testing range 0.45~500): No effect
MIC 80% ([1]; Acinetobacter baumannii (KUMC.2014.91), 80% inhibitory concentration, testing range 0.45~500): No effect
MIC 50% ([3]; Acinetobacter baumannii (KUMC.2014.90), 50% inhibitory concentration, testing range 0.45~500): No effect
MIC 80% ([3]; Acinetobacter baumannii (KUMC.2014.90), 80% inhibitory concentration, testing range 0.45~500): No effect
SMILES: CC1(C)S[C@@H]2[C@H](NC(=O)[C@H](N)c3ccccc3)C(=O)N2[C@H]1C(=O)O [Ampicillin]
MBC ([1]; Acinetobacter baumannii (KUMC.2014.91), testing range 0.45~500): No effect
growth inhibition (in words) ([1]; carbapenem-resistant KUMC.2014.91 strain): unable to inhibit the growth
growth inhibition (in words) [2]: inhibited the growth
MIC50 ([2]; 50% inhibitory concentration, testing range 0.45~500): < 31.3 µg/mL
MIC80 ([2]; 80% inhibitory concentration, testing range 0.45~500): < 62.5 µg/mL
MBC ([2]; testing range 0.45~500): < 62.5 µg/mL
MBC ([3]; Acinetobacter baumannii (KUMC.2014.90), testing range 0.45~500): No effect
growth inhibition (in words) ([3]; carbapenem-resistant KUMC.2014.90 strain): unable to inhibit the growth

Reference: patent publication US10792340B2, “Antibacterial composition for combating carbapenem-resistant gram-negative bacteria comprising ADK protein as active ingredient” (KONKUK UNIVERSITY GLOCAL INDUSTRY-ACADEMIC COLLABORATION …, priority 2015, dated 2020)
